Data taken from patent US20040096465A1, “Novel receptors for $1(helicobater pyroli) and use thereof” (priority 2001, published 2004).
Entries after “also recorded” stand apart in the source; their conditions may differ.

Key:
[1] = system: Helicobacter pylori; test: TLC bacterial overlay assay with 35S-labeled Helicobacter pylori; format: binding; conditions: for binding activity of neoglycolipid with regard to Helicobacter pylori: oligosaccharide reductively aminated with 4-hexadecylaniline (HDA); for binding of Helicobacter pylori to the glycosphingolipid on TLC plates: overlay with 35S-labeled bacteria, autoradiography, visual evaluation; for binding of Helicobacter pylori strain 032 to purified glycosphingolipids (FIGS. 7A and 7B): 4 μg per lane, autoradiography 72 h; for lowest amount of glycolipid giving a positive response on TLC plates: dilution series, semi-quantitative, evaluated visually, pentaglycosylceramide mean of 7 experiments; for binding of Helicobacter pylori strain 032 to purified glycosphingolipids (FIGS. 7A and 7B) / binding frequency: strain 032; for binding frequency: total number of plates about 100
[2] = system: Helicobacter pylori binding to human gastrointestinal cell lines; conditions: Simon et al.; cited from earlier work
[3] = system: Helicobacter pylori; conditions: Mysore et al.; cited from earlier work

For `CCCCCCCCCCCCCCCCc1ccc(NC[C@H](O)[C@@H](O)[C@H](O[C@@H]2O[C@H](CO)[C@H](O)[C@H](O[C@@H]3O[C@H](CO)[C@@H](O[C@@H]4O[C@H](CO)[C@H](O)[C@H](O[C@@H]5O[C@H](CO)[C@@H](O)[C@H](O)[C@H]5NC(C)=O)[C@H]4O)[C@H](O)[C@H]3NC(C)=O)[C@H]2O)[C@H](O)CO)cc1` [GlcNAcβ3Galβ4GlcNAcβ3Galβ4Glc(red)-HDA], the “binding activity of neoglycolipid with regard to Helicobacter pylori” value (from here on “binding activity of neoglycolipid”) [1] was “clear binding activity”.
For `CC(=O)N[C@H]1[C@H](OC[C@H]2OC(O)[C@H](O)[C@@H](O)[C@H]2O)O[C@H](CO)[C@@H](O[C@@H]2O[C@H](CO)[C@H](O)[C@H](O[C@@H]3O[C@H](CO)[C@@H](O)[C@H](O)[C@H]3NC(C)=O)[C@H]2O)[C@@H]1O` (stereo partly drawn) [GlcNAcβ3Galβ4GlcNAcβ6Gal], the “binding activity of neoglycolipid” value [1] was “some binding activity”.
In the case of Fucα2Galβ4GlcNAcβ3Galβ4Glcβ1Cer [H5-2], the “binding of Helicobacter pylori to the glycosphingolipid on TLC plates” value (“binding of Helicobacter pylori … on TLC plates” below) [1] is reported as “absence of binding” and the “binding of Helicobacter pylori … on TLC plates” value ([1]; listed as HS-2) is reported as “inactive”.
For GalNAcα3Galβ4GlcNAcβ3Galβ4GlcβCer, the “binding of Helicobacter pylori … on TLC plates” value [1] was “bind Helicobacter pylori” and the “binding of Helicobacter pylori … on TLC plates” value ([1]; listed as GalNAcα3 Galβ4GlcNAcβ3Galβ4GlcβCer) was “binding was also found”.
For “GalNAcβ3Galβ3Galβ4GlcNAcβ3Galβ4Glcβ3Cer [GalNAcβ3-B5]”, the “binding of Helicobacter pylori … on TLC plates” value [1] was “non-binding”, the “binding of Helicobacter pylori … on TLC plates” value ([1]; listed as GalNAcβ3Galβ3Galβ4GlcNAcβ3Galβ4Glcβ3Cer) was “did not appear to bind” and the “binding of Helicobacter pylori … on TLC plates” value ([1]; listed as no. 25) was “complete loss of binding”.
In the case of GalNAcβ3Galβ4GlcNAcβ3Galβ4GlcβCer, the “binding of Helicobacter pylori … on TLC plates” value [1] is reported as “bind Helicobacter pylori”, the “binding of Helicobacter pylori … on TLC plates” value ([1]; listed as x2 GSL) is reported as “binding” and the “binding of Helicobacter pylori strain 032 to purified glycosphingolipids (FIGS. 7A and 7B)” value (“binding … (FIGS. 7A and 7B)” below) [1] is reported as “binding was also found”.
With “Galα3(Fucα2)Galβ4GlcNAcβ3Galβ4Glcβ1Cer [B6-2]” the “binding of Helicobacter pylori … on TLC plates” value [1] was “non-binding; also recorded: inactive” and the “binding of Helicobacter pylori … on TLC plates” value ([1]; listed as Galα3(Fucα2)Galβ4GlcNAcβ3Galβ4Glcβ3Cer) was “non-binding”.
In the case of Galα3Galβ4GlcNAcβ3Galβ4Glc(red)-HDA, the “binding activity of neoglycolipid” value [1] is reported as “clear binding activity”.
For “Galα3Galβ4GlcNAcβ3Galβ4GlcNAcβ3Galβ4GlcβCer”, the “binding of Helicobacter pylori … on TLC plates” value [1] was “higher activity” and the “binding of Helicobacter pylori … on TLC plates” value ([1]; listed as no. 28) was “observed binding”.
For Galα3Galβ4GlcNAcβ3Galβ4GlcβCer, the “binding of Helicobacter pylori … on TLC plates” value [1] was “bind Helicobacter pylori”, the “binding of Helicobacter pylori … on TLC plates” value ([1]; listed as B5) was “binding” and the “binding of Helicobacter pylori … on TLC plates” value ([1]; listed as B5 glycosphingolipid) was “equally active”. The “binding … (FIGS. 7A and 7B)” value [1] was “binding-active”.
For Galα3Galβ4GlcNβ3Galβ4GlcβCer, the “binding of Helicobacter pylori … on TLC plates” value [1] was “not binding”, the “binding of Helicobacter pylori … on TLC plates” value ([1]; listed as Galα3Galβ4GlcNH2βGalβ4GlcβCer) was “non-binding” and the “binding of Helicobacter pylori … on TLC plates” value ([1]; listed as no. 14) was “loss of bacterial binding”.
For “Galβ4GlcNAcβ3(Galβ4GlcNAcβ6)Galβ4GlcβCer”, the “binding of Helicobacter pylori … on TLC plates” value [1] was “destroyed” and the “binding of Helicobacter pylori … on TLC plates” value ([1]; listed as glycosphingolipid from bovine buttermilk) was “non-binding”.
For Galβ4GlcNAcβ3Galβ4GlcNAcβ3Galβ4GlcβCer, the “lowest amount of glycolipid giving a positive response on TLC plates” value (“lowest amount” for short) [1] was ~0.2 nmol/spot, the “binding of Helicobacter pylori … on TLC plates” value [1] was “weaker binding; also recorded: weaker activity” and the “binding of Helicobacter pylori … on TLC plates” value ([1]; listed as Galβ4GlcNAcβ3Galβ4-GlcNAcβ3Galβ4GlcβCer) was “binding-active; also recorded: reduced affinity”. For the same compound, the “binding of Helicobacter pylori … on TLC plates” value ([1]; listed as hexaglycosylceramides) was “displayed binding activity” and the binding frequency [1] was ~90%.
For Galβ4GlcNAcβ3Galβ4GlcβCer, the “lowest amount” value [1] was ~0.3 nmol/spot, the “binding of Helicobacter pylori … on TLC plates” value [1] was “binding is weaker” and the “binding of Helicobacter pylori … on TLC plates” value ([1]; listed as tetraglycosylceramides) was “displayed binding activity”. The “binding … (FIGS. 7A and 7B)” value [1] was “binding”.
In the case of Galβ4GlcNβ3Galβ4GlcβCer, the “binding of Helicobacter pylori … on TLC plates” value [1] is reported as “not binding” and the “binding of Helicobacter pylori … on TLC plates” value ([1]; listed as no. 6) is reported as “loss of bacterial binding”.
In the case of “Glc(A-methylamide)β3Galβ4GlcNAcβ3Galβ4GlcβCer”, the “binding of Helicobacter pylori … on TLC plates” value [1] is reported as “very strong binding”.
For GlcAβ3Galβ4GlcNAcβ3Galβ4GlcβCer, the “binding of Helicobacter pylori … on TLC plates” value [1] was “binding active”.
With GlcNAcβ3Galβ4GlcNAc(red)-HDA the “binding activity of neoglycolipid” value [1] was “weakly binding or inactive”.
For GlcNAcβ3Galβ4GlcNAcβ3Galβ4GlcβCer, the “lowest amount” value [1] was 0.039 nmol/spot, the “binding of Helicobacter pylori … on TLC plates” value [1] was “binding-active; also recorded: high affinity” and the “binding of Helicobacter pylori … on TLC plates” value ([1]; listed as five-sugar glycosphingolipid from rabbit thymus) was “equally active”. For the same compound, the “binding of Helicobacter pylori … on TLC plates” value ([1]; listed as pentaglycosylceramide) was “strong activity; also recorded: highly active; also recorded: most active species”, the “binding of Helicobacter pylori … on TLC plates” value ([1]; listed as pentaglycosylceramides) was “displayed binding activity” and the binding frequency [1] was ~90%.
With GlcNAcβ3Galβ4GlcNAcβ6GlcNAc(red)-HDA the “binding activity of neoglycolipid” value [1] was “strong binding activity” and the “binding activity of neoglycolipid” value ([1]; listed as GlcNAcβ3Galβ4GlcNAcβ6GlcNAc) was “high affinity binding”.
For GlcNAcβ3Galβ4GlcβCer, the “binding of Helicobacter pylori … on TLC plates” value [1] was “not binding” and the “binding of Helicobacter pylori … on TLC plates” value ([1]; listed as triglycosylceramide) was “inactive”.
In the case of Glcβ3Galβ4GlcNAcβ3Galβ4GlcβCer, the “binding of Helicobacter pylori … on TLC plates” value [1] is reported as “strong binding”.
With “NeuAcα3GalNAcβ3Galβ4GlcNAcβ3Galβ4Glcβ1Cer [NeuAc-x2]” the “binding of Helicobacter pylori … on TLC plates” value ([1]; listed as Neu5Acα3GalNAcβ3Galβ4GlcNAcβ3Galβ4GlcβCer) was “did not appear to bind”, the “binding of Helicobacter pylori … on TLC plates” value ([1]; listed as NeuAcα3GalNAcβ3Galβ4GlcNAcβ3Galβ4GlcβCer) was “non-binding” and the “binding of Helicobacter pylori … on TLC plates” value ([1]; listed as no. 24) was “complete loss of binding”. The “binding … (FIGS. 7A and 7B)” value [1] was “non-binding”.
For “NeuGcα3Galβ4GlcNAcβ3Galβ4GlcNAcβ3Galβ4GlcβCer”, the “binding by Helicobacter pylori isolates” value ([1]; about 60 isolates tested) was “bound by most Helicobacter pylori isolates” and the “binding of Helicobacter pylori … on TLC plates” value [1] was “weaker binding”.
With “maltoheptaose(red)-HDA [reference compound]” the “binding activity of neoglycolipid” value [1] was “weakly binding or inactive”.
In the case of sialyl-lactose, the “inhibition of Helicobacter pylori binding to human gastrointestinal cell lines” value [2] is listed as “inhibits” and the “efficacy in rhesus monkey animal model of the infection” value [3] is listed as “effective”.
